Laboratory results from ChEMBL document CHEMBL1201862, “PubChem BioAssay data set” (2004).
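Compound exposure: 48 hours, 5 concentrations, 96-well plates. Here, GI50 denotes the concentration required for 50% inhibition of growth.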 Activity calls are given as the source filed them. Rule as the data show it: active = GI50 up to about 1.1 µM and inactive = higher.

Tests used:
Assay in all cases: NCI-60 cell line screen, 48 h
SNB-19 = system: SNB-19
786-0 = system: 786-0
A549 = system: A549
SK-MEL-5 = system: SK-MEL-5
COLO 205 = system: COLO 205
HL-60 = system: HL-60
IGROV-1 = system: IGROV-1
HT-29 = system: HT-29
HCT-15 = system: HCT-15
MDA-MB-231 = system: MDA-MB-231
Malme-3M = system: Malme-3M
RPMI-8226 = system: RPMI-8226
Hs-578T = system: Hs-578T
T47D = system: T47D
MCF7 = system: MCF7
K562 = system: K562
LOX IMVI = system: LOX IMVI
OVCAR-5 = system: OVCAR-5
OVCAR-4 = system: OVCAR-4
MOLT-4 = system: MOLT-4

Structure (SMILES)	GI50 (SNB-19)	GI50 (786-0)	GI50 (A549)	GI50 (SK-MEL-5)	GI50 (COLO 205)	GI50 (HL-60)	GI50 (IGROV-1)	GI50 (HT-29)	GI50 (HCT-15)	GI50 (MDA-MB-231)	GI50 (Malme-3M)	GI50 (RPMI-8226)	GI50 (Hs-578T)	GI50 (T47D)	GI50 (MCF7)	GI50 (K562)	GI50 (LOX IMVI)	GI50 (OVCAR-5)	GI50 (OVCAR-4)	GI50 (MOLT-4)
O=S(=O)(c1cnccc1N1CCN(CCO)CC1)N1CCCC1	> 100 µM (inactive)	> 100 µM (inactive)	> 100 µM (inactive)	> 100 µM (inactive)	> 100 µM (inactive)	> 100 µM (inactive)	> 100 µM (inactive)	> 100 µM (inactive)	> 100 µM	> 100 µM (inactive)	> 100 µM (inactive)	> 100 µM (inactive)	> 100 µM (inactive)	> 100 µM (inactive)	> 100 µM (inactive)	> 100 µM (inactive)	> 100 µM (inactive)	> 100 µM (inactive)	> 100 µM (inactive)	–
O=C1C(CN2CCCC2)CCCC1CN1CCCC1 (centres undefined)	> 100 µM (inactive)	1.07 µM (active)	19.8 µM (inactive)	16.6 µM (inactive)	1.53 µM (inactive)	0.326 µM (active)	17.1 µM (inactive)	14.7 µM (inactive)	2.19 µM	15.8 µM (inactive)	0.611 µM (active)	0.9 µM (active)	28 µM (inactive)	2.56 µM (inactive)	0.658 µM (active)	0.206 µM (active)	2.52 µM (inactive)	5.98 µM (inactive)	5.75 µM (inactive)	0.258 µM (active)
COc1ccc(/C=C/C(=O)c2cccc(C(=O)/C=C/c3ccc(OC)c(OC)c3)n2)cc1OC	27 µM (inactive)	11.9 µM (inactive)	> 100 µM (inactive)	98.4 µM (inactive)	> 68.2 µM (inactive)	1.15 µM (inactive)	25.9 µM (inactive)	7.87 µM (inactive)	14 µM	25.4 µM (inactive)	24.5 µM (inactive)	3.23 µM (inactive)	> 48.2 µM (inactive)	> 49.3 µM (inactive)	3.64 µM (inactive)	3.69 µM (inactive)	2.02 µM (inactive)	29.6 µM (inactive)	> 100 µM (inactive)	2.82 µM (inactive)
COC(=O)c1ccccc1/C=C1\Cc2ccc3ccccc3c2C1C (centres undefined)	> 100 µM (inactive)	81.5 µM (inactive)	51.3 µM (inactive)	20.9 µM (inactive)	60.1 µM (inactive)	24.1 µM (inactive)	> 100 µM (inactive)	–	58.5 µM	> 100 µM (inactive)	53.7 µM (inactive)	37 µM (inactive)	34.6 µM (inactive)	17.4 µM (inactive)	50.4 µM (inactive)	37.6 µM (inactive)	> 100 µM (inactive)	13.2 µM (inactive)	45.6 µM (inactive)	27.2 µM (inactive)
COc1ccc(Cn2nc(OCc3ccccc3)c3cc([N+](=O)[O-])ccc32)cc1	> 100 µM (inactive)	> 100 µM (inactive)	> 100 µM (inactive)	> 100 µM (inactive)	–	> 100 µM (inactive)	> 100 µM (inactive)	> 100 µM (inactive)	> 100 µM	> 100 µM (inactive)	> 100 µM (inactive)	> 100 µM (inactive)	> 100 µM (inactive)	> 100 µM (inactive)	> 100 µM (inactive)	> 100 µM (inactive)	> 100 µM (inactive)	> 100 µM (inactive)	–	> 100 µM (inactive)
COC(=O)C1(Cc2ccccc2)Cc2ccccc2C1	–	22.7 µM (inactive)	26.7 µM (inactive)	15.7 µM (inactive)	19.1 µM (inactive)	14.3 µM (inactive)	28.4 µM (inactive)	20.4 µM (inactive)	26.1 µM	32.7 µM (inactive)	15.5 µM (inactive)	20.4 µM (inactive)	27.5 µM (inactive)	21.5 µM (inactive)	25.1 µM (inactive)	15.8 µM (inactive)	20.5 µM (inactive)	31.8 µM (inactive)	22.4 µM (inactive)	14.8 µM (inactive)
O=C(/C=C/c1ccccc1)CCC1C(=O)c2ccccc2C1=O	> 100 µM (inactive)	> 100 µM (inactive)	> 100 µM (inactive)	> 100 µM (inactive)	64.9 µM (inactive)	> 100 µM (inactive)	> 100 µM (inactive)	> 100 µM (inactive)	42.6 µM	> 100 µM (inactive)	> 100 µM (inactive)	73.6 µM (inactive)	> 100 µM (inactive)	> 100 µM (inactive)	> 100 µM (inactive)	> 100 µM (inactive)	> 100 µM (inactive)	> 100 µM (inactive)	31.3 µM (inactive)	> 100 µM (inactive)
COC(=O)c1c(C)cccc1/C=C1\Cc2cc(C)cc(C)c2C1=O	18.5 µM (inactive)	16.3 µM (inactive)	76.4 µM (inactive)	32.3 µM (inactive)	–	> 100 µM (inactive)	65.8 µM (inactive)	89.5 µM (inactive)	> 100 µM	> 100 µM (inactive)	> 100 µM (inactive)	> 100 µM (inactive)	18.1 µM (inactive)	31.7 µM (inactive)	25.8 µM (inactive)	> 100 µM (inactive)	> 100 µM (inactive)	> 100 µM (inactive)	9.75 µM (inactive)	> 100 µM (inactive)
CCOc1ccc(/N=C/C=C(\Cl)c2ccc3ccccc3c2)cc1	16.4 µM (inactive)	12.8 µM (inactive)	29.8 µM (inactive)	16.4 µM (inactive)	16.7 µM (inactive)	8.59 µM (inactive)	17.1 µM (inactive)	11.5 µM (inactive)	13.7 µM	15.4 µM (inactive)	14.2 µM (inactive)	6.65 µM (inactive)	29.8 µM (inactive)	4.95 µM (inactive)	17.7 µM (inactive)	8.55 µM (inactive)	6.58 µM (inactive)	17.8 µM (inactive)	10.6 µM (inactive)	2.55 µM (inactive)
O=C1N[C@@H](c2c[nH]c3cc(Br)ccc23)C(=O)N[C@H]1c1c[nH]c2cc(Br)ccc12	> 100 µM (inactive)	> 100 µM (inactive)	> 100 µM (inactive)	> 100 µM (inactive)	> 100 µM (inactive)	> 100 µM (inactive)	> 100 µM (inactive)	> 100 µM (inactive)	> 100 µM	17.1 µM (inactive)	> 100 µM (inactive)	> 100 µM (inactive)	> 100 µM (inactive)	> 100 µM (inactive)	> 100 µM (inactive)	> 100 µM (inactive)	> 100 µM (inactive)	> 100 µM (inactive)	> 100 µM (inactive)	–
Brc1ccc(C2C3CSc4ccccc4C3=NN2c2ccccc2)cc1 (centres undefined)	> 100 µM (inactive)	> 100 µM (inactive)	56.9 µM (inactive)	31.8 µM (inactive)	97.1 µM (inactive)	42.9 µM (inactive)	74.8 µM (inactive)	78.2 µM (inactive)	39.6 µM	> 100 µM (inactive)	> 100 µM (inactive)	27.3 µM (inactive)	> 100 µM (inactive)	14.3 µM (inactive)	14.5 µM (inactive)	77.4 µM (inactive)	77.8 µM (inactive)	–	7.62 µM (inactive)	43 µM (inactive)
O=C(O)COCC(=O)N(CCOCCN(Cc1ccccc1)C(=O)COCC(=O)O)Cc1ccccc1	> 100 µM (inactive)	> 100 µM (inactive)	> 100 µM (inactive)	> 100 µM (inactive)	> 100 µM (inactive)	> 100 µM (inactive)	> 100 µM (inactive)	> 100 µM (inactive)	> 100 µM	> 100 µM (inactive)	> 100 µM (inactive)	> 100 µM (inactive)	> 100 µM (inactive)	> 100 µM (inactive)	> 100 µM (inactive)	> 100 µM (inactive)	> 100 µM (inactive)	> 100 µM (inactive)	–	> 100 µM (inactive)
CCCCCC(/C=N/N)C(O)(C(F)(F)F)C(F)(F)F (centres undefined)	4.08 µM (inactive)	2.97 µM (inactive)	4.91 µM (inactive)	1.77 µM (inactive)	1.86 µM (inactive)	> 10 µM (inactive)	7.18 µM (inactive)	3.59 µM (inactive)	3.48 µM	4.07 µM (inactive)	1.36 µM (inactive)	> 10 µM (inactive)	3.27 µM (inactive)	7.08 µM (inactive)	3.22 µM (inactive)	–	3.32 µM (inactive)	4.19 µM (inactive)	5.35 µM (inactive)	> 10 µM (inactive)
COc1cc([N+](=O)[O-])c(S(=O)(=O)[O-])cc1-[n+]1nc(C(=O)Nc2ccccc2)nn1-c1ccc([N+](=O)[O-])c(S(=O)(=O)O)c1	> 100 µM (inactive)	> 100 µM (inactive)	> 100 µM (inactive)	> 100 µM (inactive)	> 100 µM (inactive)	84.7 µM (inactive)	> 100 µM (inactive)	> 100 µM (inactive)	> 100 µM	52.2 µM (inactive)	> 100 µM (inactive)	> 100 µM (inactive)	> 100 µM (inactive)	> 100 µM (inactive)	> 100 µM (inactive)	> 100 µM (inactive)	–	> 100 µM (inactive)	> 100 µM (inactive)	> 100 µM (inactive)
CN(C)CCCNc1ccc2c(=O)n(CCN(C)C)c(=O)n3c4ccccc4c(=O)c1c23	0.132 µM (active)	0.0419 µM (active)	0.155 µM (active)	0.35 µM (active)	0.127 µM (active)	0.15 µM (active)	0.148 µM (active)	0.0647 µM (active)	0.0562 µM	0.164 µM (active)	0.286 µM (active)	0.129 µM (active)	1.49 µM (inactive)	1.03 µM (active)	0.0885 µM (active)	0.0512 µM (active)	0.144 µM (active)	0.356 µM (active)	0.224 µM (active)	0.0268 µM (active)
